Tests used:
[1] = system: aptamer # 3_7 (DNA, aptamer) ATACCAGCTTATTCAATTGGTGGTAGGATGGGCTCGATCGAGGTCTTCAGTCGGCTCGGTTTAGTTTATGTTCTCCTGTAGATAGTAAGTGCAATCT; assay: bead fluorescence release assay; conditions: 100 mM Na+, 5 mM K+, 2 mM Mg2+, 1 mM Ca2+; 20 mM Tris-HCl pH 7.6, 21 °C; 1 mM compound; release from capture oligo iODN2Sp; single concentration
[2] = system: aptamer # 11_76 (DNA, aptamer) ATACCAGCTTATTCAATTATGCGGGGATGAGGCTTGATCTGTGGCTCTGATCCATGATCAGTCGTCTTACGTGCGGTCCAGATAGTAAGTGCAATCT; assay: bead fluorescence release assay; conditions: 100 mM Na+, 5 mM K+, 2 mM Mg2+, 1 mM Ca2+; 20 mM Tris-HCl pH 7.6, 21 °C; 1 mM compound; release from capture oligo iODN2Sp; single concentration
[3] = system: aptamer # 13_82 (DNA, aptamer) ATACCAGCTTATTCAATTCAGGGCGGTATGAGGCTCGATCAAGGTCGGAGCGAGAATTTTTTCGCGGAGTCGGCTGGATCAGATAGTAAGTGCAATCT; assay: bead fluorescence release assay; conditions: 100 mM Na+, 5 mM K+, 2 mM Mg2+, 1 mM Ca2+; 20 mM Tris-HCl pH 7.6, 21 °C; 1 mM compound; release from capture oligo iODN2Sp; single concentration
[4] = system: aptamer # 3_19 (DNA, aptamer) ATACCAGCTTATTCAATTAGCCCGGTATTGAGGTCGATCTCTTATCCTATGGCTTGTCCCCCATGGCTCGGTTATATCCAGATAGTAAGTGCAATCT; assay: bead fluorescence release assay; conditions: 100 mM Na+, 5 mM K+, 2 mM Mg2+, 1 mM Ca2+, 20 mM Tris-HCl pH 7.6, 21 °C, 1 mM compound, release from capture oligo iODN2Sp; for amount of eluted aptamer DNA: single concentration; for binding: below 1 pmol threshold
[5] = system: aptamer # 3_7(1-79) (DNA, aptamer) ATACCAGCTTATTCAATTGGTGGTAGGATGGGCTCGATCGAGGTCTTCAGTCGGCTCGGTTTAGTTTATGTTCTCCTGT; assay: bead fluorescence release assay; conditions: 100 mM Na+, 5 mM K+, 2 mM Mg2+, 1 mM Ca2+; 20 mM Tris-HCl pH 7.6, 21 °C; 1 mM compound; release from capture oligo iODN2Sp; single concentration
[6] = system: aptamer # 13_82(19-80) (DNA, aptamer) CAGGGCGGTATGAGGCTCGATCAAGGTCGGAGCGAGAATTTTTTCGCGGAGTCGGCTGGATC; assay: MTP fluorescence release assay; conditions: 100 mM Na+, 5 mM K+, 2 mM Mg2+, 1 mM Ca2+; 20 mM Tris-HCl pH 7.6, 21 °C; release from capture oligo iODN2Sp; elution not above background
[7] = system: aptamer # 13_82(19-80) (DNA, aptamer) CAGGGCGGTATGAGGCTCGATCAAGGTCGGAGCGAGAATTTTTTCGCGGAGTCGGCTGGATC; assay: bead fluorescence release assay; conditions: 100 mM Na+, 5 mM K+, 2 mM Mg2+, 1 mM Ca2+; 20 mM Tris-HCl pH 7.6, 21 °C; 1 mM compound; release from capture oligo iODN2Sp; single concentration
[8] = system: # 3_19(1-79) (DNA, aptamer) ATACCAGCTTATTCAATTAGCCCGGTATTGAGGTCGATCTCTTATCCTATGGCTTGTCCCCCATGGCTCGGTTATATCC; assay: MTP fluorescence release assay; conditions: 100 mM Na+, 5 mM K+, 2 mM Mg2+, 1 mM Ca2+; 20 mM Tris-HCl pH 7.6, 21 °C; release from capture oligo iODN2Sp; elution not above background
[9] = system: aptamer # 3_19 (DNA, aptamer) ATACCAGCTTATTCAATTAGCCCGGTATTGAGGTCGATCTCTTATCCTATGGCTTGTCCCCCATGGCTCGGTTATATCCAGATAGTAAGTGCAATCT; assay: fluorescence (bead or MTP assay) or SPR, capture-oligo release; conditions: 100 mM Na+, 5 mM K+, 2 mM Mg2+, 1 mM Ca2+; 20 mM Tris-HCl pH 7.6; release from capture oligo iODN2Sp; micromolar range; apparent
[10] = system: aptamer # 3_7(1-79) (DNA, aptamer) ATACCAGCTTATTCAATTGGTGGTAGGATGGGCTCGATCGAGGTCTTCAGTCGGCTCGGTTTAGTTTATGTTCTCCTGT; assay: as above; conditions: 100 mM Na+, 5 mM K+, 2 mM Mg2+, 1 mM Ca2+; 20 mM Tris-HCl pH 7.6; release from capture oligo iODN2Sp; micromolar range; apparent
[11] = system: aptamer # 11_76 (DNA, aptamer) ATACCAGCTTATTCAATTATGCGGGGATGAGGCTTGATCTGTGGCTCTGATCCATGATCAGTCGTCTTACGTGCGGTCCAGATAGTAAGTGCAATCT; assay: as above; conditions: 100 mM Na+, 5 mM K+, 2 mM Mg2+, 1 mM Ca2+; 20 mM Tris-HCl pH 7.6; release from capture oligo iODN2Sp; micromolar range; apparent
[12] = system: aptamer # 13_82 (DNA, aptamer) ATACCAGCTTATTCAATTCAGGGCGGTATGAGGCTCGATCAAGGTCGGAGCGAGAATTTTTTCGCGGAGTCGGCTGGATCAGATAGTAAGTGCAATCT; assay: as above; conditions: 100 mM Na+, 5 mM K+, 2 mM Mg2+, 1 mM Ca2+; 20 mM Tris-HCl pH 7.6; release from capture oligo iODN2Sp; micromolar range; apparent
[13] = system: aptamer # 13_82(19-80) (DNA, aptamer) CAGGGCGGTATGAGGCTCGATCAAGGTCGGAGCGAGAATTTTTTCGCGGAGTCGGCTGGATC; assay: as above; conditions: 100 mM Na+, 5 mM K+, 2 mM Mg2+, 1 mM Ca2+; 20 mM Tris-HCl pH 7.6; release from capture oligo iODN2Sp; micromolar range; apparent

amount of eluted aptamer DNA [1] | amount of eluted aptamer DNA [2] | amount of eluted aptamer DNA [3] | amount of eluted aptamer DNA [4] | amount of eluted aptamer DNA [5] | binding [6] | binding [4] | amount of eluted aptamer DNA [7] | binding [8] | dissociation constant [9] | dissociation constant [10] | dissociation constant [11] | dissociation constant [12] | dissociation constant [13] | Structure (SMILES)
1.03 pmol | 1.03 pmol | 1.01 pmol | – | – | – | – | – | – | – | – | – | – | – | CCN[C@@H]1C[C@H](N)[C@@H](O[C@H]2OC(CN)=CC[C@H]2N)[C@H](O)[C@H]1O[C@H]1OC[C@](C)(O)[C@H](NC)[C@H]1O
3.04 pmol | 3.04 pmol | 3.40 pmol | 2.27 pmol | 1.68 pmol | – | – | – | – | – | – | – | – | – | CN[C@@H]1[C@@H](O[C@H]2O[C@H](CO)[C@@H](N)[C@H](O)[C@H]2O)O[C@H]2C[C@@H](N)[C@@H](O[C@H]3[C@H](O)[C@@H](O)[C@H](N)C[C@@H]3N)O[C@@H]2[C@@H]1O
– | – | – | – | – | no | – | – | – | – | – | – | – | – | NC[C@@H]1O[C@H](O[C@H]2[C@@H](O)[C@H](O[C@@H]3[C@@H](O)[C@H](N)C[C@H](N)[C@H]3O[C@H]3O[C@H](CO)[C@@H](O)[C@H](O)[C@H]3N)O[C@@H]2CO)[C@H](N)[C@@H](O)[C@@H]1O
– | 4.03 pmol | 2.78 pmol | – | 1.91 pmol | – | no | 1.13 pmol | – | – | – | – | – | – | NC[C@H]1O[C@H](O[C@H]2[C@H](O)[C@@H](O[C@H]3O[C@H](CO)[C@@H](O)[C@H](N)[C@H]3O)[C@H](N)C[C@@H]2N)[C@H](N)C[C@@H]1O
4.42 pmol | 5.21 pmol | 7.22 pmol | – | 8.04 pmol | – | no | 3.09 pmol | – | – | – | – | – | – | NC[C@H]1O[C@H](O[C@H]2[C@H](O)[C@@H](O[C@H]3O[C@H](CO)[C@@H](O)[C@H](N)[C@H]3O)[C@H](N)C[C@@H]2N)[C@H](N)[C@@H](O)[C@@H]1O
4.62 pmol | 5.02 pmol | 6.85 pmol | 3.02 pmol | 10.44 pmol | – | – | 6.87 pmol | no | 3.9 µM | 146 µM | 9.6 µM | 5.1 µM | 5.4 µM | NC[C@H]1O[C@H](O[C@H]2[C@H](O)[C@@H](O[C@H]3O[C@H](CO)[C@@H](O)[C@H](N)[C@H]3O)[C@H](N)C[C@@H]2N)[C@H](O)[C@@H](O)[C@@H]1O
